Measurements: ChEMBL document CHEMBL4334438, “Discovery of novel glycogen synthase kinase-3α inhibitors: Structure-based virtual screening, preliminary SAR and biological evaluation for treatment of acute myeloid leukemia” (Eur J Med Chem, 2019)

Key:
[1] = test system: NB-4; experiment: Induction of cell differentiation in human NB4 cells assessed as increase in CD14-FITC positive cells after 6 days by flow cytometry analysis; format: functional, cell-based
[2] = species on record: Homo sapiens; experiment: Selectivity index, ratio of IC50 for inhibition of human GSK-3beta H350L mutant (2 to end residues) to IC50 for inhibition of human GSK-3alpha S449A mutant (2 to end residues)
[3] = biological target: Serine/threonine-protein kinase LATS2 (Homo sapiens) (UniProt Q9NRM7); experiment: Inhibition of human LATS2 assessed as residual activity at 1 uM by radiometric assay relative to control
[4] = test system: HL-60; experiment: Induction of cell differentiation in human HL60 cells assessed as increase in CD11b-APC-Cy7 positive cells after 6 days by flow cytometry analysis; format: functional, cell-based
[5] = biological target: Casein kinase I isoform epsilon (Homo sapiens) (UniProt P49674); experiment: Inhibition of recombinant human CK1epsilon assessed as residual activity at 1 uM using KRRRALS(p)VASLPGL as substrate incubated for 120 mins in presence of [gamma-33ATP] by scintillation counting based radiometry assay relative to control
[6] = biological target: Serine/threonine-protein kinase OSR1 (Homo sapiens) (UniProt O95747); experiment: Inhibition of recombinant human OSR1 assessed as residual activity at 1 uM relative to control
[7] = test system: HL-60; experiment: Induction of cell differentiation in human HL60 cells assessed as increase in CD11c-APC positive cells after 6 days by flow cytometry analysis; format: functional, cell-based

Sequence of Serine/threonine-protein kinase OSR1 (Homo sapiens) (O95747 2-527 limits assumed): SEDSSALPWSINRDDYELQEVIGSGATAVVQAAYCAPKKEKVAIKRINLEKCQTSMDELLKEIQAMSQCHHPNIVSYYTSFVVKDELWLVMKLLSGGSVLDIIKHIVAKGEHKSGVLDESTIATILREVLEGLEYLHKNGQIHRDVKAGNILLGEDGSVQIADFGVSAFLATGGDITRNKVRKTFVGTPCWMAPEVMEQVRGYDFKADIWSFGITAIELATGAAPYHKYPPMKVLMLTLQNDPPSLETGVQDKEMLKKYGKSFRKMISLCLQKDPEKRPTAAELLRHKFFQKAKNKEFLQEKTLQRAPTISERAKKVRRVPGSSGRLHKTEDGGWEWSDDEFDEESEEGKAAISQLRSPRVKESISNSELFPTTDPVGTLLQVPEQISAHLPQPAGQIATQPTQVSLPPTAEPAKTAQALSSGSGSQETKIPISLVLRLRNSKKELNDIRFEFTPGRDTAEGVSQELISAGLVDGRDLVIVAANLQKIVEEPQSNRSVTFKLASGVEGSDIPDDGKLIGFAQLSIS
Sequence of Casein kinase I isoform epsilon (Homo sapiens) (P49674 whole entry, looked up, canonical isoform): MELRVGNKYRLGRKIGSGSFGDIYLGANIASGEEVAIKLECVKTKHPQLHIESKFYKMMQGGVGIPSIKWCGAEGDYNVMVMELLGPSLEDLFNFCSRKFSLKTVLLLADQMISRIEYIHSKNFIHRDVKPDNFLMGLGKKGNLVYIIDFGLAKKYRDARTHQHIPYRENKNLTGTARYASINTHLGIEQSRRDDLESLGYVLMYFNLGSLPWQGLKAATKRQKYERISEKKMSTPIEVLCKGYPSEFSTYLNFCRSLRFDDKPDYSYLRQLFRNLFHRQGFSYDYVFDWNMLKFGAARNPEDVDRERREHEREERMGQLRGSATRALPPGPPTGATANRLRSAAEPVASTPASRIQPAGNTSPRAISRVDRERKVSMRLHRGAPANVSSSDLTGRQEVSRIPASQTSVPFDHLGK
Sequence of Serine/threonine-protein kinase LATS2 (Homo sapiens) (Q9NRM7 whole entry): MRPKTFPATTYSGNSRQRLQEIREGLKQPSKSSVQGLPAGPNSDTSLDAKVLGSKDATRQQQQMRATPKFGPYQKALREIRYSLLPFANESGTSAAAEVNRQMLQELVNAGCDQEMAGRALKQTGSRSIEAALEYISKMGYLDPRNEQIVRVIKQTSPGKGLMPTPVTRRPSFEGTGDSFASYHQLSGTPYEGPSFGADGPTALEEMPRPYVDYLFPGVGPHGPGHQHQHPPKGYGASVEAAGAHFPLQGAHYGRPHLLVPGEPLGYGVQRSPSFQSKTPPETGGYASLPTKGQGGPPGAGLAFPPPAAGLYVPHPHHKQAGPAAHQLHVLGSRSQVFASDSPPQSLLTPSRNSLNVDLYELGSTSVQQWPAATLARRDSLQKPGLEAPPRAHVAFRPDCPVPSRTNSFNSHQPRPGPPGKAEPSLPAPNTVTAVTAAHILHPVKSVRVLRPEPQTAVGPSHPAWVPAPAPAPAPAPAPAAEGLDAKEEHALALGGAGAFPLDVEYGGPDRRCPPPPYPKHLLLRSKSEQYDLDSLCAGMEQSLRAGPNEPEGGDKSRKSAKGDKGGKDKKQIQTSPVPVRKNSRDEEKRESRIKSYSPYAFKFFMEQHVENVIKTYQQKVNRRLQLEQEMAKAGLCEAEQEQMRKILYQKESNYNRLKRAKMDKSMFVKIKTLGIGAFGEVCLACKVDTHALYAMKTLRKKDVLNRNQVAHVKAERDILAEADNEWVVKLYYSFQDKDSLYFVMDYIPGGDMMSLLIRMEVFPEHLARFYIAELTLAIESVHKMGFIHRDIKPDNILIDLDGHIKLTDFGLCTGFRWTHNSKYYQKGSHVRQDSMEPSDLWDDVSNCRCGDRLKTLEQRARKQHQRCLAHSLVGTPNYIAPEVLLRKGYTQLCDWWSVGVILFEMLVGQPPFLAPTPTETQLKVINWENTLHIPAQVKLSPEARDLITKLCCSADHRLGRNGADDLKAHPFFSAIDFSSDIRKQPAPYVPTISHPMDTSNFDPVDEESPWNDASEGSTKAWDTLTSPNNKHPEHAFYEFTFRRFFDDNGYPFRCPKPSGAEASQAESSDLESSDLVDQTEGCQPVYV

C=CCOC(=O)c1cc(-c2ccc(/C=C3/NC(=S)NC3=O)o2)ccc1Cl
Activity [1]: Dose-dependent effect
Ratio IC50 [2]: 6.6
Activity [3]: 100%
Activity [4]: Dose-dependent effect
Activity [5]: 91%
Activity [6]: 118%
Activity [7]: Dose-dependent effect
